Here are results for 18 compounds from US7407939B2, “Protein kinase inhibitors comprising ATP mimetics conjugated to peptides or peptidomimetics” (CureGenics Ltd., priority 2001, dated 2008).

Like-named read-outs stand apart in the source and are kept apart here. *1 amine or outer side, *2 acyl side, *3 side chain or, on linkers, in order; H or OH if unused. Where a SMILES comes first, the peptide text is derived from it. Where no end group is shown, it is not given here. Side-chain parts run from the residue outwards. [ ]: non-standard residue; d: D form. The star is where a group is joined. X1 = 5‑aminoethylsulfonamide isoquinoline, O=S(=O)(NCCN*)c1cccc2cnccc12; Isoquinoline5sulfonyl = O=S(=O)(c1cccc2cnccc12)*; Ethylenediamine = C(CN[*:2])N[*:1]; hLeu = CC(C)CC[C@H](N)C(=O)O; Nle = CCCC[C@H](N)C(=O)O; Orn = NCCC[C@H](N)C(=O)O; Dab = NCC[C@H](N)C(=O)O; Nva = CCC[C@H](N)C(=O)O; Abu = CC[C@H](N)C(=O)O; Dap = NC[C@H](N)C(=O)O; βAla = NCCC(=O)O

One experiment has as its target T1, PKB (Homo sapiens, UniProt P31749).
T1 construct: His; HA; made in house
The experiment can be described thus: PKB in vitro kinase activity assay (soluble His-HA-PKB / SPA bead screening). In kind it is biochemical. Further details: % Inhibition PKB I / % Inhibition PKB II: concentration or dose not given beside the values. The note with it: for PKB-kinase (spa) Assay 1, % inhibition of kinase activity / PKB-kinase (spa) Assay 2, % inhibition of kinase activity / inhibition at 1 µM: 1 μM compound concentration.

A further experiment addresses T2, PKA (Bos taurus, UniProt P00517).
T2 construct: purchased Promega
The experiment can be described thus: In vitro PKA kinase activity assay (kemptide / SPA beads).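 On all read-outs here: Cell-free assay of purified PKA catalytic subunit phosphorylating the 7-mer kemptide substrate, run in MOPS buffer with magnesium acetate and BSA, with blank wells lacking enzyme.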 Further details: % Inhibition PKA: concentration or dose not given beside the values. Particulars: for PKA-kinase Assay 1, % inhibition of kinase activity / PKA-kinase Assay 2, % inhibition of kinase activity / inhibition at 1 µM: 1 μM compound concentration. In kind it is biochemical.

For another experiment, the system named is PC-3 cells. The experiment can be described thus: ssDNA apoptosis ELISA (induction of apoptosis in prostate cancer cells). In kind it is cell-based. Particulars: 50 μM, optical density of treated divided by untreated cells. As for the experimental part:
Cells were assayed for Apoptosis using the ssDNA Apoptosis ELISA kit (Chemicon International Inc.). Cells were seeded in 96-well plates (5000 cells/well) and treated with different concentrations of the inhibitors. At different time point, plates were centrifuges at 200 g for 5 min, medium was removed and the cells were fixed with 80% methanol in PBS for 30 min at room temperature. Plates were dried by floating in a waterbath at 37° C. for 20 minutes. 50 μl of Formamide was added to each well and incubate at room temperature for 10 min. Plates were heated to 75° C. in a circulating waterbath for 10 min, cooled in refrigerator for 5 min, and then formamide was removed. Plates were blocked by 3% non-fat dry milk in distilled water (w/v) for 1 hr at 37° C. Blocking was removed and 100 μl of antibody mixture (primary monoclonal antibody to ssDNA and HRP-labelled anti-mouse IgM) was added to each well. Plates were monitored for colour development by ABTS using microplate reader at 405 nm.
DNA in apoptotic cells is sensitive to denaturation by formamide in contrast to necrotic cells. This sensitivity is due to changes in apoptotic cells chromatin. The specific denaturation was detected with monoclonal antibody to single stranded DNA. Using ssDNA Apoptosis ELISA kit (Chemicon International, Inc.) chimeric compounds were analyzed for their potential to induce apoptosis in PC-3 cells compared to TRAIL (TNF-related apoptosis-inducing ligand), a known apoptotic agent (R&D Systems, Inc.). Results are presented in values of apoptotic index which is calculated by dividing the optical density of treated and untreated cells.
For orientation: In an ELISA, binding on a coated surface is turned into a signal by an enzyme label.

The mark [1] stands for this setting: chimeric PTR compounds (peptide conjugated to isoquinoline small molecule), read-out: PKB IC50.
Setting [2] is: chimeric PTR compounds (peptide conjugated to isoquinoline small molecule), read-out: PKA IC50.
Where [3] appears, read: Assay 1, read-out: PKB-kinase (spa) Assay 1, % inhibition of kinase activity.
Setting [4] is: Assay 2, read-out: PKB-kinase (spa) Assay 2, % inhibition of kinase activity.
[5] abbreviates: Table 1, most preferred compounds, read-out: IC50 PKB.
Setting [6] is: Assay 1, read-out: PKA-kinase Assay 1, % inhibition of kinase activity.
[7] abbreviates: Assay 2, read-out: PKA-kinase Assay 2, % inhibition of kinase activity.
The mark [8] stands for this setting: Table 1, most preferred compounds, read-out: IC50 PKA.

T1 sequence (P31749 whole entry, species assumed): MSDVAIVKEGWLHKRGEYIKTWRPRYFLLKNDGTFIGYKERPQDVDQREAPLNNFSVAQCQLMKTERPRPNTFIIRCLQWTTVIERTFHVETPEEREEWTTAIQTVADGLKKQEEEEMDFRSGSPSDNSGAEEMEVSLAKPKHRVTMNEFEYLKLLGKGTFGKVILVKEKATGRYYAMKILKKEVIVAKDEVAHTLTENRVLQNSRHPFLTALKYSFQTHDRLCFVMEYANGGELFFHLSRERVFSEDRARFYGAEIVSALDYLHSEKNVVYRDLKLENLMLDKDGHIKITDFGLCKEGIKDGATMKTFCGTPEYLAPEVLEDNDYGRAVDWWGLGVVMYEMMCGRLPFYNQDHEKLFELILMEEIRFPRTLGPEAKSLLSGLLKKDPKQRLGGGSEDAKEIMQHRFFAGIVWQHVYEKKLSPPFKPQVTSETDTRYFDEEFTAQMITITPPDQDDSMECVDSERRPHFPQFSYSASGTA
Procedure for PKA: PKA enzyme was purchased from Promega. PKA activity is assayed on a 7-mer peptide, LRRASLG, known as kemptide. The assay is carried out in 96-well plates, in a final volume of 50 μl per well. The reaction mixture includes various concentrations of the inhibitor, 50 mM MOPS, 10 mM MgAc, 0.2 mg/ml BSA, 10 μM ATP, 20 μM Kemptide and 1 μCi γ^32P ATP. Reaction is started with addition of 15 μl of the catalytic subunit of PKA diluted in 0.1 mg/ml BSA, 0.4 U/well. Two blank wells without enzyme are included in every assay. The plates are agitated continuously at 30° C. for 10′ or at 27° C. for 1 hour. Reaction is stopped by addition of 12 μl 200 mM EDTA. 20 μl aliquots of the assay mixture are spotted onto 2 cm^2 phosphocellulose strips (e.g. Whatman P81) and immersed in 75 mM phosphoric acid (10 ml per sample). The phosphocellulose strips are washed 6 times. Washes are done in continuous swirling for 5 minutes, last wash is in acetone. After air drying the strips, radiation is measured by scintillation spectrometry.
Screening compounds for PKA inhibition was performed in 96-well plate using SPA beads, as described below for PKB with the following modifications; The enzyme substrate was 5 μM biotinylated-kemptide peptide (biotin-[sequence]). The kinase buffer was 50 mM MOPS pH 7, 0.2 mg/ml BSA, 10 mM Magnesium acetate. PKA (0.4 unit) diluted in 0.1 mg/ml BSA was added to each well.

What is called IC50 is the concentration that inhibits the measured activity by half. Turning to `CCC[C@H](NC(=O)[C@H](CCCNC(=N)N)NC(=O)[C@@H]1CCCN1C(=O)[C@@H](N)CCCNC(=N)N)C(=O)N[C@@H](CCC(=O)NCCC(=O)NCCNS(=O)(=O)c1cccc2cnccc12)C(=O)N[C@@H](C)C(=O)N[C@@H](CCC(C)C)C(N)=O` [compound 6152] (H-RPR[Nva]E([βAla-Ethylenediamine-Isoquinoline5sulfonyl])A[hLeu]-NH2; N-terminus assumed), the IC50 at PKB (setting [1]) and at PKA (setting [2]) was 5000 nM throughout. For the same compound, the “Apoptotic index (48 hours)” value with PC-3 cells was found to be 1.5.

Turning to `CCCC[C@H](NC(=O)[C@H](CCCNC(=N)N)NC(=O)[C@@H]1CCCN1C(=O)[C@@H](N)CCCNC(=N)N)C(=O)N[C@@H](CCC(=O)NCCC(=O)NCCNS(=O)(=O)c1cccc2cnccc12)C(=O)N[C@@H](CC)C(=O)N[C@@H](Cc1ccccc1)C(N)=O` [compound 6138] (H-RPR[Nle]E([βAla-Ethylenediamine-Isoquinoline5sulfonyl])[Abu]F-NH2; N-terminus assumed), the IC50 on PKB (setting [1]) was found to be 2000 nM. The “Apoptotic index (48 hours)” value in the experiment with PC-3 cells was 3.6.

On to “Arg-Pro-Arg-Thr-Glu-(bAla-5-mercaptoaminopropyl-isoquinoline)-Ser-Phe [PTR 6102]”, for which the “Apoptotic index (48 hours)” value in the experiment on PC-3 cells was 2.7.

Regarding “Arg-Pro-Arg-Nle-Glu-(5-mercaptoaminopropyl-isoquinoline)-Ser-Phe [PTR 6136]”, the “Apoptotic index (48 hours)” value with PC-3 cells came out at 2.4.

Regarding `CCCC[C@H](NC(=O)[C@H](CCCNC(=N)N)NC(=O)[C@@H]1CCCN1C(=O)[C@@H](N)CCCNC(=N)N)C(=O)N[C@@H](CCC(=O)NCCC(=O)NCCNS(=O)(=O)c1cccc2cnccc12)C(=O)N[C@@H](CO)C(=O)N[C@@H](Cc1ccccc1)C(N)=O` [compound 6086], the IC50 stood at 570 nM on PKB (setting [1]) and 500 nM at PKA (setting [2]). In addition, the “Apoptotic index (48 hours)” value in the experiment on PC-3 cells was determined as 2.5.

Turning to `C[C@@H](O)[C@H](NC(=O)[C@H](CCCNC(=N)N)NC(=O)[C@@H]1CCCN1C(=O)[C@@H](N)CCCNC(=N)N)C(=O)N[C@@H](CCC(=O)NCCC(=O)NCCNS(=O)(=O)c1cccc2cnccc12)C(=O)N[C@@H](CO)C(=O)N[C@@H](Cc1ccccc1)C(N)=O` [compound 6082] (H-RPRTE([βAla-Ethylenediamine-Isoquinoline5sulfonyl])SF-NH2; N-terminus assumed), the figures for the IC50 on PKB (setting [1]) and on PKA (setting [2]) were 5540 nM and 200 nM, respectively. In addition, the “Apoptotic index (48 hours)” value with PC-3 cells amounted to 2.6.

As for “Arg-Pro-Arg-Nva-Glu-(5-mercaptoaminopropyl-isoquinoline)-Ser-Phe [PTR 6134]”, the “Apoptotic index (48 hours)” value with PC-3 cells stood at 2.2.

In the case of “60020-37: Arg-Pro-Arg-Dap-Glu(Gly-5-aminoethylsulfonamide isoquinoline)-Ala-Phe (RPR[Dap]E([Gly-X1])AF)”, the “PKB-kinase (spa) Assay 1, % inhibition of kinase activity” value (“PKB-kinase (spa) Assay 1, % inhibition” for short) with PKB (Assay 1) is listed as 53%. Further, the “PKB-kinase (spa) Assay 2, % inhibition of kinase activity” value (“PKB-kinase (spa) Assay 2, % inhibition” for short) in the experiment with PKB (Assay 2) worked out at 44%. Further, the “PKA-kinase Assay 1, % inhibition of kinase activity” value (“PKA-kinase Assay 1, % inhibition” for short) with PKA (Assay 1) worked out at 98%. Besides, the “PKA-kinase Assay 2, % inhibition of kinase activity” value (shortened to “PKA-kinase Assay 2, % inhibition”) with PKA (Assay 2) is 99%.

For orientation: inhibition means the percentage by which the read-out fell short of the control. As to `CCCC[C@H](NC(=O)[C@H](CCCNC(=N)N)NC(=O)[C@@H]1CCCN1C(=O)[C@@H](N)CCCNC(=N)N)C(=O)N[C@@H](CCC(=O)NCC(=O)NCCNS(=O)(=O)c1cccc2cnccc12)C(=O)N[C@@H](CCN)C(=O)N[C@@H](Cc1ccccc1)C(N)=O` [60020-57, Arg-Pro-Arg-Nle-Glu-(Gly-5-aminoethylsulfonamide)-Dab-Phe] (H-RPR[Nle]E([Gly-Ethylenediamine-Isoquinoline5sulfonyl])[Dab]F-NH2), the inhibition at 1 µM on PKB (setting [3]) came to 92%; at PKB (setting [4]) it was 93%; on PKA (setting [6]), 95%; on PKA (setting [7]), 96%. Besides, the IC50 on PKB (setting [5]) came out at 70 nM; at PKA (setting [8]), 210 nM.

As for “60020-35: Arg-Pro-Arg-Dap-Glu(Gly-5-aminoethylsulfonamide isoquinoline)-Orn-Phe (RPR[Dap]E([Gly-X1])[Orn]F; not fully specified)”, the “PKB-kinase (spa) Assay 1, % inhibition” value in the experiment with PKB (Assay 1) stood at 43%. Besides, the “PKB-kinase (spa) Assay 2, % inhibition” value with PKB (Assay 2) is given as 56%. Moreover, the “PKA-kinase Assay 1, % inhibition” value with PKA (Assay 1) turned out to be 95%. Further, the “PKA-kinase Assay 2, % inhibition” value in the experiment with PKA (Assay 2) is listed as 96%.

Consider `CCCC[C@H](NC(=O)[C@H](CCCNC(=N)N)NC(=O)[C@@H]1CCCN1C(=O)[C@@H](N)CCCNC(=N)N)C(=O)N[C@@H](CCC(=O)NCCNS(=O)(=O)c1cccc2cnccc12)C(=O)N[C@@H](CO)C(=O)N[C@@H](Cc1ccccc1)C(N)=O` [compound 6128], for which the figures for the IC50 on PKB (setting [1]) and at PKA (setting [2]) were 9000 nM and 100 nM, respectively.

Regarding “60020-11: Arg-Pro-Arg-Orn-Glu(5-aminoethylsulfonamide isoquinoline)-Orn-Phe (RPR[Orn]E(X1)[Orn]F)”, the “PKB-kinase (spa) Assay 1, % inhibition” value with PKB (Assay 1) worked out at 58%. Further, in the experiment with PKB (Assay 2), the “PKB-kinase (spa) Assay 2, % inhibition” value amounted to 52%. The “PKA-kinase Assay 1, % inhibition” value with PKA (Assay 1) was 95%. In addition, in the experiment with PKA (Assay 2), the “PKA-kinase Assay 2, % inhibition” value is 96%.

Regarding “60020-43: Arg-Pro-Arg-Orn-Glu(Gly-5-aminoethylsulfonamide isoquinoline)-Orn-Phe (RPR[Orn]E([Gly-X1])[Orn]F)”, the “PKB-kinase (spa) Assay 1, % inhibition” value with PKB (Assay 1) is on record as 48%. Further, the “PKB-kinase (spa) Assay 2, % inhibition” value in the experiment with PKB (Assay 2) is reported as 62%. The “PKA-kinase Assay 1, % inhibition” value in the experiment with PKA (Assay 1) stood at 96%. Besides, in the experiment with PKA (Assay 2), the “PKA-kinase Assay 2, % inhibition” value came to 96%.

Turning to “60020-38: Arg-Pro-Arg-Dap-Glu(Gly-5-aminoethylsulfonamide isoquinoline)-Ala-Hol (RPR[Dap]E([Gly-X1])A[hLeu])”, in the experiment with PKB (Assay 1), the “PKB-kinase (spa) Assay 1, % inhibition” value was 49%. Also, the “PKB-kinase (spa) Assay 2, % inhibition” value with PKB (Assay 2) came out at 49%. For the same compound, the “PKA-kinase Assay 1, % inhibition” value with PKA (Assay 1) came out at 98%. Further, the “PKA-kinase Assay 2, % inhibition” value with PKA (Assay 2) is on record as 99%.

With “60002-88 (RPRT[Abu][Dap]F) [Compound 60002-88]”, the “% Inhibition PKB I” value in the experiment with PKB (plate screening, peptide moiety alone, PKB I) is recorded as 40%. In the experiment with PKA (plate screening, peptide moiety alone), the “% Inhibition PKA” value is reported as −3%.

For `CCCC[C@H](NC(=O)[C@H](CCCNC(=N)N)NC(=O)[C@@H]1CCCN1C(=O)[C@@H](N)CCCNC(=N)N)C(=O)N[C@@H](CCC(=O)NCC(=O)NCCNS(=O)(=O)c1cccc2cnccc12)C(=O)N[C@@H](CCN)C(=O)N[C@@H](CCC(C)C)C(N)=O` [60020-58, Arg-Pro-Arg-Nle-Glu-(Gly-5-aminoethylsulfonamide)-Dab-Hol] (H-RPR[Nle]E([Gly-Ethylenediamine-Isoquinoline5sulfonyl])[Dab][hLeu]-NH2), the inhibition at 1 µM on PKB (setting [3]) came out at 89%; on PKB (setting [4]) it was 93%; at PKA (setting [6]), 98%; on PKA (setting [7]), 99%. Further, the 50% inhibitory concentration (IC50) on PKB (setting [5]) turned out to be 120 nM; on PKA (setting [8]), 50 nM.

On to “Arg-Pro-Arg-Thr-Glu-(5-mercaptoaminopropyl-isoquinoline)-Ser-Phe [PTR 6104]”, for which the “Apoptotic index (48 hours)” value in the experiment with PC-3 cells is 2.9.

Regarding “60020-51: Arg-Pro-Arg-Abu-Glu(Gly-5-aminoethylsulfonamide isoquinoline)-Orn-Phe (RPR[Abu]E([Gly-X1])[Orn]F)”, the “PKB-kinase (spa) Assay 1, % inhibition” value in the experiment with PKB (Assay 1) was 47%. The “PKB-kinase (spa) Assay 2, % inhibition” value in the experiment with PKB (Assay 2) was found to be 37%. For the same compound, the “PKA-kinase Assay 1, % inhibition” value with PKA (Assay 1) stood at 94%. Besides, in the experiment with PKA (Assay 2), the “PKA-kinase Assay 2, % inhibition” value turned out to be 95%.
